“Also recorded” adds a separate entry of the source. Where two headings read alike, the source gives them in different places.
Columns and labels:
HCV2aChLuc (NS3:A156S) = test: Infectivity of protease mutant virus versus wild type in the presence of compounds; type: cell-based, HCV genotype 2a; conditions: HCV2aChLuc (NS3:A156S) vs wild type HCV2aChLuc
Text: Therefore, we introduced A156S mutation in the backbone of HCV2aChLuc genome and investigated the infectivity of the mutant virus in the presence of compounds.

[1] = system: Bovine viral diarrhea virus (BVDV); test: BVDV plaque-forming assay in MDBK cells; type: cell-based; conditions: even at 1 μM
Procedure: Bovine viral diarrhea virus (BVDV) is a closely related virus to HCV, belonging to the same Family, Flaviviridae. To validate the specificity of antiviral activity, BVDV infection was done with MDBK cells in the presence of compounds provided herein. MDBK cells (70 to 80% confluent) were infected with a diluted virus. Following 1 h of adsorption at 37° C., cells were washed once with DMEM, overlaid with 1.5% low-melting-point (LMP) agarose (Gibco-BRL) in MEM containing 5% HS, and incubated at 37° C. To assay for plaque-forming virus, after 3 days monolayers were fixed with 3.7% formaldehyde for 2 h at room temperature, the agarose plugs were removed, and the monolayers were stained with crystal violet.

HCV = test: Combination of viral entry inhibitor with IFN-α, HCVcc infection system, luciferase assay; type: cell-based; conditions: Huh7 cells, 72 hrs
Procedure: The current standard of care for the treatment of chronic hepatitis C is the combination of pegylated IFN-α (interferon-alpha) and ribavirin. […] Huh7 cells were incubated with various concentrations of Compound 1 or interferon alone, or combinations of both for 72 hrs, and the anti-HCV activity was measured by luciferase assays. The same was experiment was performed for Compound 5.

[2] = system: HCV genotype 1b subgenomic replicon; test: HCV replicon assay (HCV1b replicon cells, NS5A ELISA); type: cell-based; conditions: 3 days
Procedure: Alternatively, Hut1b cells (Huh7 cells stably replicating HCV genotype 1b subgenomic replicon) were treated with serial dilutions of the test compound for 72 hours. Replication efficiency was monitored by ELISA assay using anti-HCV NS5A monoclonal antibody (Virogen).
Increasing amounts of compound were inoculated onto HCV1b replicon cells and incubated for 3 days. Following incubation, HCV replication was monitored with NS5A protein expression by ELISA.

Jc1-luc virus = test: Synergy testing (Combination Index) in Jc1-luc system; type: cell-based, HCV genotype-2a
Procedure: Luciferase compound activity assay. Cell culture and luciferase compound assays were performed as previously described. See Wyles et al., J. Virol. 2007, 81:3005-8; Wyles et al., Antimicrob Agents Chemother. 2009, 53:2660-2; Grünberger et al., J. Infect. Dis. 2008, 197:42-5; Wyles et al., Antimicrob Agents Chemother, 2008, 52:1862-4. Briefly, Huh7.5.1 cells were seeded into 96-well plates at a density of 10,000 cells per well in 100 μl medium. After incubating overnight for attachment, Jc1-luc virus at an MOI 0.01 was added to wells with or without compounds at the specified concentrations. All conditions were run in triplicate. After 24 hours, medium was aspirated and replaced with 100 μl of complete medium containing an identical concentration of compound(s) followed by additional 48 hour incubation. The luciferase assay (Bright-Glo; Promega) was carried out according to the manufacturer's instructions. Luciferase activity was determined using a microplate luminometer (Veritas microplate luminometer; Turner Biosystems). The relative light units (RLU) for each condition were reported as the mean±the standard error of the mean for the three wells.
Synergy testing. The 50% effective concentration (EC50) of Compound 5 and other anti-HCV compounds was determined independently and used to set the range of concentrations for synergy experiments.
(§1) Data analysis. Determinations of compound interactions were quantified based on the median-effect principle described by Chou and Talalay. Chou T., Talalay P., Adv. Enzyme. Regul., 1984, 22:27-55. Combination indices (CIs) were determined using Calcusyn (Biosoft) for each experiment at the EC50, EC75, and EC90 levels. Five replicates per condition were evaluated. A CI<0.9 was considered synergistic, a CI≧0.9 and ≦[…] was considered additive, and a CI>1.1 was deemed antagonistic.

HCV1a/2a chimeric virus = test: HCV entry assay with HCV1a/2a chimeric virus; type: cell-based, HCV genotype 1a; conditions: compared with HCV2a chimeric virus
Text: Since HCV genotype 1 is the most prevalent genotype among the variants of HCV, we constructed an HCV1a/2a chimeric infectious clone with two cell-culture adaptive mutations introduced. Sequences for the structural proteins (including C, E1, and E2), p7, and NS2 were derived from HCV genotype 1a H77 strain. The rest of nonstructural proteins (NS3 to NS5B) and 3′ NTR were derived from HCV genotype 2a JFH strain. 5′NTR was originated from HCV2aJ6 (FIG. 7). […] Therefore, both HCV1a/2aCh virus and HCV1a/2aChLuc virus with Y361H and Q1251L mutations were successively produced in Huh7 cells and used for HCV entry assay.

HCV2a/2aChRluc virus = test: Compound 5 with ribavirin or VX950 in the HCV2a/2aChRluc system; type: cell-based, HCV genotype 2a
Procedure: 100 μl of serially diluted compound solutions (100, 30, 10, 3, 1, 0.3, and 0.1 nM) was inoculated onto Huh-7 cells in a 96-well plate. Subsequently, 100 ul (TCID50, ˜0.6) of HCV2a/2aChRluc virus was added onto the cells. After co-incubation for 72 hrs, Renilla luciferase expression was determined (Renilla Luciferase Assay, Promega) and reported as relative light units (RLU).
as §1

HCV2aChLuc virus = test: In vitro HCVcc entry assay: HCV2aChLuc virus infection of Huh7 cells, Renilla luciferase read-out; type: cell-based, HCV genotype 2a; conditions: for IC50: Hepatitis C virus
SR-B1 pathway = conditions: cited from earlier work
[3] = Cytotoxicity of anti-HCV compounds (CC50, Table 4); conditions: human, Huh7.5.1 cells

Question: For `COc1c(NC(=O)C(=O)c2ccc(OCCN3CCOCC3)c3ccccc23)cc(C(C)(C)C)cc1NS(C)(=O)=O` [Compound 5, N-(5-tert-butyl-2-methoxy-3-(methylsulfonamido)phenyl)-2-(4-(2-morpholinoethoxy)naphthalen-1-yl)-2-oxoacetamide], which “resistance of NS3:A156S mutant virus versus wild type (inhibition of infectivity)” value (HCV2aChLuc (NS3:A156S)) is on record?
Answer: Its value is “no significant difference”.

Question: What about the “inhibitory effect on BVDV infection” value [1] of the same compound?
Answer: The value was “No significant inhibitory effect”.

Question: What about the “effect of combination with IFN-α on inhibition of HCV infection in cell culture” value (HCV) of the same compound?
Answer: Its value is “additive to moderate synergistic effect”.

Question: And the “effect on HCV replication (NS5A protein expression by ELISA)” value [2]?
Answer: The value was “did not measurably inhibit; also recorded: no measurable effect”.

Question: And the “antagonism with any compound studied” value (Jc1-luc virus)?
Answer: Its value is “not antagonistic”.

Question: What about the “Combination Index (CI) with 2′-C-methyladenosine” value (Jc1-luc virus; at 50% effective dose (ED50)) of the same compound?
Answer: The value was 1.09.

Question: What about the “Combination Index (CI) with BILN2061” value (Jc1-luc virus; at 50% effective dose (ED50)) of the same compound?
Answer: Its value is 0.98.

Question: What about the “Combination Index (CI) with interferon-alpha” value (Jc1-luc virus; at 50% effective dose (ED50)) of the same compound?
Answer: The value was 1.00.

Question: What about the “interaction with VX1” value (Jc1-luc virus; at ED50, ED75 and ED90) of the same compound?
Answer: The value was “consistent synergy”.

Question: What about the “interaction with all compounds tested” value (Jc1-luc virus; at ED75 and ED90) of the same compound?
Answer: Its value is “synergy”.

Question: And the “inhibition of HCV1a chimeric virus” value (HCV1a/2a chimeric virus)?
Answer: Its value is “inhibited”.

Question: And the “interaction with VX-950” value (HCV2a/2aChRluc virus; HCV2a/2aCHRLuc system)?
Answer: Its value is “consistent synergy”.

Question: What about the “effect of combination with ribavirin” value (HCV2a/2aChRluc virus; ribavirin 15 μM) of the same compound?
Answer: Its value is “no antagonistic effect”.

Question: What about the IC50 (HCV2aChLuc virus; Huh-7, 72 h, read-out: observed IC50, Huh7 cells co-incubated with HCV2aChRluc virus and compound for 3 days, repeated assays (n>30)) of the same compound?
Answer: The IC50 was 0.05 to 0.5 nM.

Question: What about the IC50 (HCV2aChLuc virus; Huh-7, read-out: Activity class (IC50), tested according to the method of Example 3) of the same compound?
Answer: Its IC50 is less than 5 nM.

Question: What about the “inhibitory effect on HCV2aChLuc viral entry” value (HCV2aChLuc virus; Huh7 cells, 3 days) of the same compound?
Answer: Its value is “dose-dependent inhibitory effect; also recorded: dose-dependent inhibition”.

Question: And the HDL levels (SR-B1 pathway; mice with a knock-out in the SR-B1 gene)?
Answer: The HDL levels was “not”.

Question: What about the HDL levels (SR-B1 pathway; mice) of the same compound?
Answer: Its HDL levels is “raised HDL levels”.

Question: What about the CC50 [3] of the same compound?
Answer: Its CC50 is greater than 100000 nM.

Reference: US20110117055A1, “Methods of Treating Hepatitis C Virus with Oxoacetamide Compounds” (priority 2009, published 2011)
